Data taken from paper PMC8348142, “Antimicrobial Peptide Modifications against Clinically Isolated Antibiotic-Resistant Salmonella” (Molecules, 2021).
Marks after values point to notes of the source that are not given here. Ends that are not written are not given here.

What was measured:
Type in all cases: cell-based
[1] = system: clinical Salmonella isolates; experiment: MIC, broth microdilution; settings: MHB, 5 × 10^5 CFU/mL, 37 °C, 18 h, duplicate
Experimental: (§1) All 12 isolates of Salmonella used in this study were clinical isolates and anonymous left-overs from laboratory diagnoses. They were maintained in a 20% glycerol (Sigma-Aldrich) stock at −80 °C and further cultured on Mueller-Hinton agar (MHA, Oxoid, Hampshire, UK) at 37 °C for 18 h to obtain single colonies for antimicrobial assays. This study was approved by the Ethics Committee of the Faculty of Tropical Medicine (Mahidol University, Bangkok, Thailand; MUTM-EXMPT 2017-007).
MIC was determined using the broth microdilution method described by Hancock with some modifications. Briefly, bacterial colonies grown from the MHA were prepared in MHB (Oxoid) as a 0.5 McFarland suspension (which is equal to 1 × 10^8 CFU/mL), and was further 200-fold diluted by the MHB (5 × 10^5 CFU/mL). The bacterial suspension (50 µL) was mixed with 2-fold serial dilutions of peptide (5.5 µL) achieving final concentrations of 256 to 1 µM using a round-bottom polypropylene (PP) 96-well plate (Greiner Bio-One). The plate was incubated at 37 °C for 18 h including incubating peptide free-bacteria as positive growth control, and MHB as negative growth control. After the incubation, the lowest concentration with no visible growth was defined as a MIC value. The assay was performed in a duplicate manner.

[2] = system: clinical Salmonella isolates; experiment: MBC, drop plate method, and MBC/MIC mode of action; settings: for MBC: drop plate on MHA from MIC plate, 37 °C, 18 h, thrice
Experimental: as §1
The plate derived from the MIC assay was immediately tested for the MBC using a drop plate method. A volume of 10 µL of the culture from individual wells at MIC, 2MIC, and 4MIC was dropped on MHA plates. […] The experiment was thrice performed.
In order to determine whether the peptides have bacteriostatic or bactericidal activity, a ratio of MBC to MIC (MBC/MIC) was applied. The ratio >4 was indicative of bacteriostatic peptide, and ≤4 was inferred as bactericidal peptide.

sheep red blood cells = experiment: Hemolytic activity assay; settings: for percent hemolysis: 2% sRBCs in PBS, 37 °C, 1 h, OD540, triplicate mean
Experimental: The peptide toxicity to the mammalian system was screened based on the hemolytic test by measuring the hemoglobin released from ruptured red blood cells (RBCs). In this study, sheep RBCs (sRBCs) were employed. They were thrice washed and prepared as a suspension in phosphate-buffered saline (PBS, Oxoid). A suspension of 2% sRBCs was incubated with 2-fold serial dilutions of peptide (final concentrations; 256 to 1 µM in a total volume of 200 µL) at 37 °C for 1 h. The solutions of 0.1% (final concentration) Triton X-100 (Sigma-Aldrich) and PBS containing the peptide solvent were used instead of the peptides as the controls of hemolysis at 100% and 0%, respectively. Thereafter, the post-incubated suspensions were centrifuged (1000× g, 3 min) to pelletize residual sRBCs. The supernatants were then transferred into a flat-bottom PS 96-well plate and were measured the absorbance at 540 nm (OD540) by a microplate reader. The test was conducted in triplicate and the mean OD540 was used to calculate the hemolysis (%) as; ((OD540 (peptide) − OD540 (PBS + peptide solvent))/(OD540 (0.1% Triton X-100) − OD540 (PBS + peptide solvent))) × 100. The hemolytic concentration 50 (HC50), a concentration inducing 50% hemolysis, was determined.
The GraphPad Prism version 7.00 (GraphPad Software, La Jolla, CA, USA) was applied for all statistical analyses and data visualizations. Replicate quantitative results were calculated and shown as mean ± SD, unless otherwise specified. The HC50 values were determined using nonlinear regression analysis. The paired t-test and repeated measures one-way ANOVA with Tukey’s multiple comparison test were applied to compare between 2 groups and among 3 or more groups, respectively. The comparisons were considered as a statistically significant difference when a p-value < 0.05.

With FIRRIARLLRRIF [Kn2-5R] as the sequence, how does the MIC ([1]; isolate 5 (Enteritidis, blood; resistant AMP, SXT, KZ)) read?
The MIC was 8 µM.

And the MIC ([1]; isolate 7 (Typhimurium, blood; resistant AMP, CN, TE, NA, SXT))?
Its MIC is 8 µM.

And the MIC ([1]; isolate 11 (I 1,4:i:-, blood; resistant AMP, TE, NA, SXT, C))?
The MIC was 8 µM.

And the MIC ([1]; isolate 18 (Stanley, urine; resistant TE, SXT, C))?
Its MIC is 8 µM.

And the MIC ([1]; isolate 26 (Typhimurium, urine; resistant TZP, TE, NA))?
Its MIC is 8 µM.

And the MIC ([1]; isolate 27 (Typhimurium, stool; resistant AMP, TE, NA, SXT, CIP))?
The MIC was 8 µM.

And the MIC ([1]; isolate 55 (Typhimurium, blood; resistant AMP, SXT, C, TE))?
The MIC was 8 µM.

What about the MIC ([1]; isolate 61 (Enteritidis, blood; resistant AMP, TE, NA, SXT)) of the same sequence?
Its MIC is 8 µM.

What about the MIC ([1]; isolate 69 (Typhimurium, stool; resistant AMP)) of the same sequence?
Its MIC is 8 µM.

What about the MIC ([1]; isolate 76 (Enteritidis, CSF; resistant NA)) of the same sequence?
The MIC was 8 µM.

What about the MIC ([1]; isolate 78 (Enteritidis, blood; resistant TE, CIP, NA, SXT)) of the same sequence?
The MIC was 8 µM.

And the MIC ([1]; isolate 107 (Typhimurium, stool; susceptible))?
Its MIC is 8 µM.

And the GM of MBC ([2]; geometric mean over 12 clinical Salmonella isolates)?
Its GM of MBC is 8 µM.

What about the MBC ([2]; isolate 5 (Enteritidis)) of the same sequence?
Its MBC is 8 µM.

And the MBC ([2]; isolate 7 (Typhimurium))?
The MBC was 8 µM.

And the MBC ([2]; isolate 11 (I 1,4:i:-))?
The MBC was 8 µM.

What about the MBC ([2]; isolate 18 (Stanley)) of the same sequence?
Its MBC is 8 µM.

What about the MBC ([2]; isolate 26 (Typhimurium)) of the same sequence?
Its MBC is 8 µM.

And the MBC ([2]; isolate 27 (Typhimurium))?
The MBC was 8 µM.

What about the MBC ([2]; isolate 55 (Typhimurium)) of the same sequence?
The MBC was 8 µM.

And the MBC ([2]; isolate 61 (Enteritidis))?
The MBC was 8 µM.

And the MBC ([2]; isolate 69 (Typhimurium))?
Its MBC is 8 µM.

And the MBC ([2]; isolate 76 (Enteritidis))?
The MBC was 8 µM.

What about the MBC ([2]; isolate 78 (Enteritidis)) of the same sequence?
Its MBC is 8 µM.

What about the MBC ([2]; isolate 107 (Typhimurium)) of the same sequence?
The MBC was 8 µM.

And the “HC50 (hemolytic concentration 50)” value (sheep red blood cells; concentration inducing 50% hemolysis of sRBCs, nonlinear regression, unit (µM))?
Its value is 886.50 µM.

What about the percent hemolysis (sheep red blood cells; peptide 1 µM) of the same sequence?
Its percent hemolysis is 0%.

What about the percent hemolysis (sheep red blood cells; peptide 2 µM) of the same sequence?
Its percent hemolysis is 0%.

And the percent hemolysis (sheep red blood cells; peptide 4 µM)?
The percent hemolysis was 0.4%.

And the percent hemolysis (sheep red blood cells; peptide 8 µM)?
Its percent hemolysis is 0.7 * %.

And the percent hemolysis (sheep red blood cells; peptide 16 µM)?
The percent hemolysis was 1.4%.

What about the percent hemolysis (sheep red blood cells; peptide 32 µM) of the same sequence?
Its percent hemolysis is 1.5%.

And the percent hemolysis (sheep red blood cells; peptide 64 µM)?
The percent hemolysis was 1.8%.

And the percent hemolysis (sheep red blood cells; peptide 128 µM)?
The percent hemolysis was 2.4%.

What about the percent hemolysis (sheep red blood cells; peptide 256 µM) of the same sequence?
Its percent hemolysis is 10.6%.

And the “concentration required for the initiation of hemolysis” value (sheep red blood cells; sRBCs, 60 min, 256–1 µM tested)?
The value was 4 µM.
